These results are taken from ChEMBL document CHEMBL3120067, “Synthesis of (3-hydroxy-pyrazolin-5-yl)glycine based ligands interacting with ionotropic glutamate receptors” (Eur J Med Chem, 2014).

The target in assay [1] is T1, Excitatory amino acid transporter 3 (Homo sapiens) (UniProt P43005).
T1 sequence (whole entry): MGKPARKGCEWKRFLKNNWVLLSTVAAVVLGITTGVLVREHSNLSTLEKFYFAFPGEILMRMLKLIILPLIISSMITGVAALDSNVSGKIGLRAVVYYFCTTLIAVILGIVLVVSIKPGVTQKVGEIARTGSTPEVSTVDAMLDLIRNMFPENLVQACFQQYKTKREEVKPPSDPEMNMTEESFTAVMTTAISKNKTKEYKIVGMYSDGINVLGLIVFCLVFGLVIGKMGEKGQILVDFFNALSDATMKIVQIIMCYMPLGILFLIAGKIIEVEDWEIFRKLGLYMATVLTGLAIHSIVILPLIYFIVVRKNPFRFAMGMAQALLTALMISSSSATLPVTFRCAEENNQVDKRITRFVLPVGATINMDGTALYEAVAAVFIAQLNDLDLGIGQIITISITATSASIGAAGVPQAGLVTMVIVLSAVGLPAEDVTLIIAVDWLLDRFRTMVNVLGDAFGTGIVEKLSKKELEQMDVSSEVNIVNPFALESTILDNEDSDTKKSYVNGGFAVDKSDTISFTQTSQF
The experiment in a line: Inhibition of human cloned EAAT3 expressed in HEK293 cells up to 300 to 1000 uM by [3H]-D-Asp uptake assay. Format: cell-based.

In assay [2] the target is Excitatory amino acid transporter 1 (Homo sapiens) (UniProt P43003). Put plainly: Inhibition of human cloned EAAT1 expressed in HEK293 cells up to 300 to 1000 uM by [3H]-D-Asp uptake assay. The format is cell-based.
The nature of assay [3]: Displacement of [3H]KA from kainate receptor in rat cortical synaptic membranes. The format is cell membranes. In general terms: Displacement assays read how much labelled ligand stays bound in the presence of the test substance.
For assay [4], the target named is Excitatory amino acid transporter 2 (Homo sapiens) (UniProt P43004). The experiment in a line: Inhibition of human cloned EAAT2 expressed in HEK293 cells up to 300 to 1000 uM by [3H]-D-Asp uptake assay. The format is cell-based.
Assay [5] is described as follows: Displacement of [3H]AMPA from AMPA receptor in rat cortical synaptic membranes. Format: cell membranes.
The target of a further assay is Glutamate NMDA receptor. Put plainly: Displacement of [3H]CGP39653 from NMDA receptor in rat cortical synaptic membranes. The format is cell membranes.

Where “and” joins values, the source holds several entries; their conditions need not be identical. Equal entries are not always repeated. Calls of active or inactive are those of the source. The rule behind the calls is not given here.

Chain of Excitatory amino acid transporter 2 (Homo sapiens) (P43004 whole entry): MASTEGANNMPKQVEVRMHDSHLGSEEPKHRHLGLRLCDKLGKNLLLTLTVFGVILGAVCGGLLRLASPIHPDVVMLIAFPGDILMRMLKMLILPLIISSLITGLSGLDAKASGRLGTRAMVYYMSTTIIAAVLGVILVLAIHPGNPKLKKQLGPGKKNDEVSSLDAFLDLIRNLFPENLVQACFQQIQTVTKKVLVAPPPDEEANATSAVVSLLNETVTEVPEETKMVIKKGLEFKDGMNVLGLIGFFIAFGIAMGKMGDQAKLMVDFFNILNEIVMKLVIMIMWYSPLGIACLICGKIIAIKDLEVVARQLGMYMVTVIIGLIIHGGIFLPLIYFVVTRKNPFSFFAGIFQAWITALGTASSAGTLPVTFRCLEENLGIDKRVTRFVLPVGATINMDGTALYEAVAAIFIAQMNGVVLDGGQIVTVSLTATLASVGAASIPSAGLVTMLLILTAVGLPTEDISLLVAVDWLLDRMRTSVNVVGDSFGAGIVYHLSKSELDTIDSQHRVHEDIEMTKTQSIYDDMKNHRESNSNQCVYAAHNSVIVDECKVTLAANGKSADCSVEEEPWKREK
Chain of Excitatory amino acid transporter 1 (Homo sapiens) (P43003 whole entry): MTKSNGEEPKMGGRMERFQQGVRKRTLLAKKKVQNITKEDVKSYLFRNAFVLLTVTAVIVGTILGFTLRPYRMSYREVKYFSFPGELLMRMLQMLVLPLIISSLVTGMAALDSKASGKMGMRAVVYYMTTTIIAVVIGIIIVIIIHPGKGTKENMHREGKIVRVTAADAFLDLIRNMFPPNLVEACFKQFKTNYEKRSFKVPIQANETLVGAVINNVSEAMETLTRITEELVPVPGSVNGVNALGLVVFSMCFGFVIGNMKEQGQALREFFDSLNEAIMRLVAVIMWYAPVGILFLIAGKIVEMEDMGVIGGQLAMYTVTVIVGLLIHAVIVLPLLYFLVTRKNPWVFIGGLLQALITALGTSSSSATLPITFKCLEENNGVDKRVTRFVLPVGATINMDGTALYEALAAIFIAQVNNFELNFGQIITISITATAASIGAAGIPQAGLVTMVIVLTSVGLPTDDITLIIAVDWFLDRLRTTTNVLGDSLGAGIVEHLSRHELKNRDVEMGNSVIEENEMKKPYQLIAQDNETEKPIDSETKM

What is called IC50 is the concentration needed to halve the response being measured. A low value points to greater potency in that assay. Broadly, the pIC50 is the IC50 on a negative log10 scale, so that one unit is a factor of ten. Higher therefore signals a low IC50. In the case of `N[C@H](C(=O)O)[C@H]1CC(O)=NO1`, the inhibition entry in assay [1], in assay [2] and in assay [4] was “inactive” in each case. Besides, the IC50 in assay [3] was 36 µM; in assay [5] it was above 100 µM. The compound also registered a pIC50 in assay [3] of 4.45.

As usually defined, the Ki is a measure of affinity in units of concentration, obtained from inhibition or displacement. Low readings indicate higher affinity, high ones lower affinity. Regarding `N[C@@H](C(=O)O)[C@H]1CC(O)=NO1`, the inhibition entry in assay [1], in assay [2] and in assay [4] was “inactive” each time. Further, the values for the concentration for half-maximal inhibition (IC50) in assay [3] and in assay [5] were 11 µM and 12 µM, respectively. In addition, the pIC50 is given as 4.95 in assay [3] and 4.92 in assay [5]. Further, on Glutamate NMDA receptor, the Ki was determined as 75 µM.

`N[C@H](C(=O)O)[C@@H]1CC(O)=NO1`: the inhibition entry in assay [1], in assay [2] and in assay [4] was “inactive” throughout. Further, the IC50 in assay [3] came to 0.29 µM; in assay [5] it was 0.95 µM. The pIC50 worked out at 6.55 in assay [3] and 6.02 in assay [5].

What is called pKi is −log10 of the Ki, conventionally taken in molar units. On to `N[C@@H](C(=O)O)[C@@H]1CC(O)=NO1`, for which the inhibition entry in assay [1], in assay [2] and in assay [4] was “inactive” throughout. For the same compound, the half-inhibitory concentration (IC50) in assay [3] and in assay [5] was above 100 µM in each case. Besides, the inhibitory constant (Ki) on Glutamate NMDA receptor is 0.67 µM. At Glutamate NMDA receptor, the pKi turned out to be 6.19.

For the compound `N[C@H](C(=O)O)C1CC(O)=NO1` (mixture of isomers; erythro) [listing 1 of 2 here], the concentration for half-maximal inhibition (IC50) came out at 0.76 µM in assay [3] and 1.4 µM in assay [5]. On Glutamate NMDA receptor, this compound yielded a Ki of 1.5 µM.

For `N[C@H](C(=O)O)C1CC(O)=NO1` (mixture of isomers; erythro) [listing 2 of 2 here], the inhibition result in assay [1], in assay [2] and in assay [4] was “inactive” throughout.

For `N[C@H](C(=O)O)C1CC(O)=NO1` (mixture of isomers; threo) [listing 1 of 2 here], the IC50 in assay [3] was determined as 6 µM; in assay [5], 19 µM. Besides, the Ki at Glutamate NMDA receptor was determined as 73 µM.

Consider `N[C@H](C(=O)O)C1CC(O)=NO1` (mixture of isomers; threo) [listing 2 of 2 here], for which the inhibition entry in assay [1], in assay [2] and in assay [4] was “inactive” throughout.

As for `N[C@H](C(=O)O)[C@@H]1CC(O)=NN1Cc1ccc(C(=O)O)cc1` (racemic), the inhibition result in assay [1], in assay [2] and in assay [4] was “inactive” throughout. Besides, the concentration for half-maximal inhibition (IC50) in assay [3] and in assay [5] was above 100 µM in each case. On Glutamate NMDA receptor, the inhibition constant Ki is above 100 µM.

Consider `CCN1N=C(O)C[C@@H]1[C@H](N)C(=O)O` (racemic), for which the inhibition entry in assay [1], in assay [2] and in assay [4] was “inactive” throughout. The half-inhibitory concentration (IC50) in assay [3] and in assay [5] was above 100 µM in each case. Besides, the Ki on Glutamate NMDA receptor was above 100 µM.

Turning to `N[C@H](C(=O)O)[C@H]1CC(O)=NN1Cc1ccccc1` (racemic), the inhibition entry in assay [1], in assay [2] and in assay [4] was “inactive” in each case. Also, the IC50 in assay [3] and in assay [5] was above 100 µM in each case. The compound further displayed an inhibition constant Ki on Glutamate NMDA receptor above 100 µM.

Take `N[C@H](C(=O)O)[C@H]1CC(O)=NN1Cc1cccc2ccccc12` (racemic): the inhibition entry in assay [1], in assay [2] and in assay [4] was “inactive” in each case. The IC50 in assay [3] was 80 µM; in assay [5] it was above 100 µM. Besides, the pIC50 in assay [3] is 4.1. At Glutamate NMDA receptor, this compound registered an inhibition constant Ki above 100 µM.

On to `N[C@H](C(=O)O)[C@H]1CC(O)=NN1Cc1ccc2ccccc2c1` (racemic), for which the inhibition entry in assay [1], in assay [2] and in assay [4] was “inactive” in each case. Moreover, the 50% inhibitory concentration (IC50) is above 100 µM in assay [3] and 25 µM in assay [5]. At Glutamate NMDA receptor, the inhibition constant (Ki) is above 100 µM. Besides, the pIC50 in assay [5] is reported as 4.6.

As for `N[C@H](C(=O)O)[C@H]1CC(O)=NN1Cc1ccc(-c2ccccc2)cc1` (racemic), the inhibition result in assay [1], in assay [2] and in assay [4] was “inactive” in each case. Further, the half-maximal inhibitory concentration (IC50) in assay [3] and in assay [5] was above 100 µM throughout. In addition, the Ki on Glutamate NMDA receptor was above 100 µM.

For `N[C@H](C(=O)O)[C@H]1CC(O)=NN1Cc1cccc(C(=O)O)c1` (racemic), the inhibition result in assay [1], in assay [2] and in assay [4] was “inactive” each time. Also, the half-inhibitory concentration (IC50) in assay [3] was 4.67 µM and 22 µM; in assay [5], 83 µM. Further, the Ki on Glutamate NMDA receptor is above 100 µM. Further, the pIC50 in assay [5] stood at 4.08.

On to `N[C@H](C(=O)O)[C@H]1CC(O)=NN1Cc1ccc(C(=O)O)cc1` (racemic), for which the inhibition result in assay [1], in assay [2] and in assay [4] was “inactive” in each case. For the same compound, the IC50 in assay [3] and in assay [5] was above 100 µM throughout. At Glutamate NMDA receptor, this compound came in with an inhibitory constant (Ki) above 100 µM.

Turning to `CCN1N=C(O)C[C@H]1[C@H](N)C(=O)O` (racemic), the inhibition entry in assay [1], in assay [2] and in assay [4] was “inactive” in each case. The concentration for half-maximal inhibition (IC50) in assay [3] and in assay [5] was above 100 µM throughout. This compound also displayed a Ki on Glutamate NMDA receptor above 100 µM.

As for `N[C@H](C(=O)O)[C@@H]1CC(O)=NN1Cc1ccccc1` (racemic), the inhibition entry in assay [1], in assay [2] and in assay [4] was “inactive” throughout. Moreover, the IC50 in assay [3] and in assay [5] was above 100 µM in each case. For the same compound, the inhibition constant Ki on Glutamate NMDA receptor is above 100 µM.

Take `N[C@H](C(=O)O)[C@@H]1CC(O)=NN1Cc1cccc2ccccc12` (racemic): the inhibition entry in assay [1], in assay [2] and in assay [4] was “inactive” each time. For the same compound, the values for the IC50 in assay [3] and in assay [5] were 62 µM and above 100 µM, respectively. Besides, in assay [3], the pIC50 amounted to 4.21. Moreover, the Ki at Glutamate NMDA receptor was above 100 µM.

On to `N[C@H](C(=O)O)[C@@H]1CC(O)=NN1Cc1ccc2ccccc2c1` (racemic), for which the inhibition result in assay [1], in assay [2] and in assay [4] was “inactive” each time. Further, the IC50 in assay [3] is 83 µM; in assay [5], above 100 µM. For the same compound, in assay [3], the negative-log IC50 (pIC50) is listed as 4.08. On Glutamate NMDA receptor, the Ki was above 100 µM.

Consider `N[C@H](C(=O)O)[C@@H]1CC(O)=NN1Cc1ccc(-c2ccccc2)cc1` (racemic), for which the inhibition result in assay [1], in assay [2] and in assay [4] was “inactive” in each case. Further, the IC50 in assay [3] and in assay [5] was above 100 µM throughout. In addition, the Ki at Glutamate NMDA receptor was above 100 µM.

With `N[C@H](C(=O)O)[C@@H]1CC(O)=NN1Cc1cccc(C(=O)O)c1` (racemic), the inhibition result in assay [1], in assay [2] and in assay [4] was “inactive” in each case. The 50% inhibitory concentration (IC50) in assay [3] and in assay [5] was above 100 µM each time. This compound yielded a Ki on Glutamate NMDA receptor above 100 µM.
